For test [1], the system named is S. epidermidis. The experiment in a line: MIC testing by broth dilution, S. epidermidis plank. The test is classed as cell-based, Staphylococcus epidermidis. The essentials: (§1)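 Media: LB (E. coli), Trypticase Soy (S. epidermidis), BHI (C. jejuni); plank cells. C. difficile on Wilkins Chalgrin agar, anaerobic Kirby-Bauer disks, zone vs NTZ zone ratio.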
Test [2] has as its system H. pylori. The experiment in a line: MIC testing by broth dilution, H. pylori. In kind it is cell-based, Helicobacter pylori. A digest of the protocol: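 Helicobacter pylori was tested using a standard broth dilution method in 96 well microplates, each well holding a standard dilution of the organism in 100 microliters of Brain Heart Infusion. Compounds started at 32 μg/ml in 200 microliters in the first well and were serially diluted from 32 to 0.06. Wells were read visually at 24 h, and the MIC was the well with no growth.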

Test [3] concerns C. difficile. The experiment in a line: Disk diffusion (Kirby Bower), C. difficile. The test is classed as cell-based, Clostridium difficile. The note with it: for Disk Diff (%) C. difficile: Nitazoxanide = 100, 2-amino-3,5-dinitrothiophene analogues table; for Disk Diffusion (%) C. difficile: zone of inhibited growth as relative ratio to the zone for NTZ. A digest of the protocol: as §1
In general terms: Agar diffusion results depend on both activity and mobility in agar.

The test system of test [4] is MRSA. The experiment in a line: MIC testing by broth dilution, MRSA. In kind it is cell-based, Staphylococcus aureus. The essentials:
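Values are broth-dilution MICs, defined as the well showing no growth on visual reading after 24 h; the tested range was 32 to 0.06 μg/ml, in organism-specific media (LB, Trypticase Soy, Brain Heart Infusion). The C. difficile entries come instead from anaerobic Kirby-Bauer disk zones, normalised to NTZ.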
Background: In broth dilution the organism is exposed to a series of concentrations in liquid medium.

In test [5] the test system is C. jejuni. The experiment in a line: MIC testing by broth dilution, C. jejuni. In kind it is cell-based, Campylobacter jejuni. The essentials:
as §1

In test [6] the test system is PFOR (pyruvate ferredoxin oxidoreductase). The experiment in a line: Direct PFOR enzyme assay. In kind it is biochemical. The protocol:
Representative compounds of the invention were tested in a series of assays against a series of organisms as described above. […] The organisms tested include, C. difficile, H. pylori, C. jejuni, MRSA, S. epidermidis, and E. coli. S. epidermidis and E. coli were tested in the plank and biofilm assay. A disk diffusion assay was also used for C. difficile. Direct PFOR enzyme assays were also performed. All analogues and derivatives were not tested on every organism in every type of assay (the “-” in each table means that it was not tested).

The subject of test [7] is E. coli. The experiment in a line: MIC testing by broth dilution, E. coli plank. The test is classed as cell-based, Escherichia coli. A digest of the protocol:
as §1

The subject of test [8] is E. coli biofilm. The experiment in a line: E. coli biofilm assay (activity tables). The test is classed as cell-based, Escherichia coli. A digest of the protocol:
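E. coli strain 042 inoculated 1:100 with NTZ-containing medium and grown statically at 37 °C for 24 h. Growth measured by turbidity or plate counts (cfu/ml); biofilm stained with 0.5% crystal violet and read at 570 nm; triplicate, mean ± SD.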

Test [9] concerns S. epidermidis biofilm. The experiment in a line: S. epidermidis biofilm assay (activity tables). The test is classed as cell-based, Staphylococcus epidermidis. A digest of the protocol: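 Overnight TSB cultures diluted to OD600 0.01 and grown static with compound (triplicate) at 37° C for 16 h; turbidity recorded for growth. Biofilm: washed wells ethanol-fixed, stained with 0.5% crystal violet, A570 read before and after 95% ethanol extraction; mean ± SD.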

Where [10] appears, read: * biphasic initial inhibition followed by uninhibited rate, ** caused some precipitant in extract.
[11] abbreviates: broth dilution, Trypticase Soy, 24 h, read-out: MIC (μM) S. epidermidis Plank.
The mark [12] stands for this setting: broth dilution, Brain Heart Infusion, 24 h, read-out: MIC (μM) H. pylori.
Setting [13] is: broth dilution, Trypticase Soy, 24 h, read-out: MIC (μM) MRSA.
Where [14] appears, read: broth dilution, Brain Heart Infusion, 24 h, read-out: MIC (μM) C. jejuni.
Setting [15] is: broth dilution, LB medium, 24 h, read-out: MIC (μM) E. coli Plank.
[16] abbreviates: planktonic, 2-amino-3,5-dinitrothiophene analogues table, read-out: MIC S. epidermidis Plank.
The mark [17] stands for this setting: 2-amino-3,5-dinitrothiophene analogues table, read-out: MIC H. pylori.
The mark [18] stands for this setting: 2-amino-3,5-dinitrothiophene analogues table, read-out: MIC MRSA.
The mark [19] stands for this setting: 2-amino-3,5-dinitrothiophene analogues table, read-out: MIC C. jejuni.
The mark [20] stands for this setting: planktonic, 2-amino-3,5-dinitrothiophene analogues table, read-out: MIC E. coli Plank.

Values after ≈ are worked out from the molar mass of the structure shown. Like-named read-outs stand apart in the source and are kept apart here. Marks after values point to notes of the source that are not given here.

Turning to `O=C(Nc1sc([N+](=O)[O-])cc1[N+](=O)[O-])c1cccs1` [VPC16b1093, N-(3,5-Dinitrothiophen-2-yl)thiophene-2-carboxamide], the MIC was 13.4 µM (≈ 4.01 µg/mL) in test [1] (Staphylococcus epidermidis, read-out: MIC S. epidermidis Plank); 2.5 µM (≈ 0.748 µg/mL) in [2] (Helicobacter pylori, read-out: MIC H. pylori); 26.7 µM (≈ 7.99 µg/mL) in [4] (Staphylococcus aureus, MRSA, read-out: MIC MRSA); 1 µM (≈ 0.299 µg/mL) in [5] (Campylobacter jejuni, read-out: MIC C. jejuni); 107 µM (≈ 32 µg/mL) in [7] (Escherichia coli, read-out: MIC E. coli Plank). In addition, the “Disk Diff (%) C. difficile” value in test [3] was determined as 43%. Also, in test [6] (setting [10]), the “PFOR inhibition relative to nitazoxanide (=100)” value stood at 143%.

In the case of `O=C(Nc1ncc([N+](=O)[O-])s1)c1ccc(F)cc1` [VPC161167, 4-Fluoro-N-(5-nitrothiazol-2-yl)benzamide], the MIC in [1] (Staphylococcus epidermidis, 24 h, read-out: MIC (μM) S. epidermidis Plank) came out at 15 µM (≈ 4.01 µg/mL); in test [8] (Escherichia coli, read-out: MIC (μM) E. coli Biofilm), 120 µM (≈ 32 µg/mL); in [2] (Helicobacter pylori, 24 h, read-out: MIC (μM) H. pylori), 0.9 µM (≈ 0.241 µg/mL); in test [4] (Staphylococcus aureus, MRSA, 24 h, read-out: MIC (μM) MRSA) it was 8.4 µM (≈ 2.24 µg/mL); in [5] (Campylobacter jejuni, 24 h, read-out: MIC (μM) C. jejuni) it was 2.8 µM (≈ 0.748 µg/mL); in test [7] (Escherichia coli, 24 h, read-out: MIC (μM) E. coli Plank), 120 µM (≈ 32 µg/mL). Moreover, in test [3], the “Disk Diffusion (%) C. difficile” value worked out at 89%. Also, the “MIC (μM) S. epidermidis Biofilm” value in test [9] was 29.9 µM (≈ 7.99 µg/mL). The “PFOR inhibition relative to nitazoxanide (=100)” value in test [6] was 99%.

On to `O=C(Nc1ncc([N+](=O)[O-])s1)c1cc(C(F)(F)F)cc(C(F)(F)F)c1` [VPC16a1039], for which the MIC is recorded as 1.9 µM (≈ 0.732 µg/mL) in test [1] (setting [11]); 5.2 µM (≈ 2 µg/mL) in [2] (setting [12]); 2.6 µM (≈ 1 µg/mL) in [4] (setting [13]); 41.5 µM (≈ 16 µg/mL) in [5] (setting [14]); 83.1 µM (≈ 32 µg/mL) in [7] (setting [15]). Also, the “Disk Diffusion (%) C. difficile” value in test [3] was 80%. In [6], the “PFOR inhibition relative to nitazoxanide (=100)” value is recorded as 54* %.

`O=C(Nc1ncc([N+](=O)[O-])s1)c1cc(C(F)(F)F)ccc1Cl` [VPC16a1040]: the MIC in test [1] (setting [11]) stood at 22.7 µM (≈ 7.98 µg/mL); in test [2] (setting [12]), 1.1 µM (≈ 0.387 µg/mL); in [4] (setting [13]), 22.7 µM (≈ 7.98 µg/mL); in test [5] (setting [14]) it was 17.1 µM (≈ 6.01 µg/mL); in test [7] (setting [15]), 91.0 µM (≈ 32 µg/mL). The “Disk Diffusion (%) C. difficile” value in [3] amounted to 90%. The “PFOR inhibition relative to nitazoxanide (=100)” value in test [6] was 68%.

Take `O=C(Nc1sc([N+](=O)[O-])cc1[N+](=O)[O-])c1ccoc1` [VPC16b1094]: the MIC in test [1] (setting [16]) was 28.2 µM (≈ 7.99 µg/mL); in test [2] (setting [17]), 2.7 µM (≈ 0.765 µg/mL); in test [4] (setting [18]) it was 56.5 µM (≈ 16 µg/mL); in [5] (setting [19]), 0.4 µM (≈ 0.113 µg/mL); in test [7] (setting [20]), 113.0 µM (≈ 32 µg/mL). The “Disk Diff (%) C. difficile” value in test [3] stood at 53%. Also, in [6] (setting [10]), the “PFOR inhibition relative to nitazoxanide (=100)” value is 126* %.

For `O=C(Nc1ncc([N+](=O)[O-])s1)c1cc(Br)c(Br)o1` [VPC161164], the MIC in test [1] (planktonic, Furan analogues table, read-out: MIC S. epidermidis Plank) is 15.1 µM (≈ 5.99 µg/mL); in [8] (biofilm, Furan analogues table, read-out: MIC E. coli Biofilm), 40.3 µM (≈ 16 µg/mL); in test [2] (Furan analogues table, read-out: MIC H. pylori), 2.8 µM (≈ 1.11 µg/mL); in test [4] (Furan analogues table, read-out: MIC MRSA), 3.8 µM (≈ 1.51 µg/mL); in test [5] (Furan analogues table, read-out: MIC C. jejuni) it was 20.2 µM (≈ 8.02 µg/mL); in test [7] (planktonic, Furan analogues table, read-out: MIC E. coli Plank), 60.5 µM (≈ 24 µg/mL). For the same compound, the “MIC S. epidermidis Biofilm” value in test [9] (Furan analogues table) was 20.2 µM (≈ 8.02 µg/mL). In test [6] (Furan analogues table), the “PFOR inhibition relative to nitazoxanide (=100)” value was determined as 56%.

As to `O=C(Nc1sc([N+](=O)[O-])cc1[N+](=O)[O-])c1ccccc1` [VPC16b1090], the MIC in [1] (setting [16]) was 5.1 µM (≈ 1.5 µg/mL); in test [2] (setting [17]), 1.3 µM (≈ 0.381 µg/mL); in [4] (setting [18]), 109.1 µM (≈ 32 µg/mL); in test [5] (setting [19]), 0.9 µM (≈ 0.264 µg/mL); in test [7] (setting [20]) it was 109.1 µM (≈ 32 µg/mL). For the same compound, the “Disk Diff (%) C. difficile” value in test [3] was 0%. In [6] (setting [10]), the “PFOR inhibition relative to nitazoxanide (=100)” value was 100** %.

For the origin of these results see US8835644B2, “Broad spectrum benzothiophene-nitrothiazolide and other antimicrobials” (University of Virginia Patent Foundation, priority 2009, dated 2014).
